In patent US10689367B2, “Triazole pyridyl compounds as agonists of the APJ receptor” (AMGEN INC., priority 2016, dated 2020):

Molecular target: human APJ receptor (Homo sapiens (Human), UniProt P35414)
Assay: [35S]GTPγS binding assay on membranes from CHO cells stably expressing human APJ receptor
Format: biochemical
Settings: membranes of CHO cells stably expressing human APJ receptor, read-out: Activity hAPJ SPA EC50 IP
Method in brief: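 Agonist EC50 values come from non-linear regression of mean data from several independent runs. Membranes of CHO cells stably expressing human APJ were incubated 90 min at room temperature with [35S]GTPγS in buffer with optimized GDP, MgCl2 and NaCl, then read on a microplate imager.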

Chain of human APJ receptor (P35414 whole entry): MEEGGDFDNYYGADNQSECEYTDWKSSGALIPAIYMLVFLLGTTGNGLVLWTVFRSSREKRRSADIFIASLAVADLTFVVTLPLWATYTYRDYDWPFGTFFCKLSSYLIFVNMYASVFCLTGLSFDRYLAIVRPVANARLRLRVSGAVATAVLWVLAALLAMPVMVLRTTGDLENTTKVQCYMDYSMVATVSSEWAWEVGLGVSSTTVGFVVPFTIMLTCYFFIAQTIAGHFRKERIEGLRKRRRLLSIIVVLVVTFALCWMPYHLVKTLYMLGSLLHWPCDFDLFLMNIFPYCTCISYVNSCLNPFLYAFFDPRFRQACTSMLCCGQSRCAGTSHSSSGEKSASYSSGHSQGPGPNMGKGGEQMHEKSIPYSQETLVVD

Question: `CC[C@@H](c1c(C)noc1C)n1c(NS(=O)(=O)[C@@H](C)[C@H](C)c2ncc(Cl)cn2)nnc1-c1cccc(OC)n1` (single isomer, unassigned) [Example 224.0, (2S,3R)-3-(5-chloro-2-pyrimidinyl)-N-(4-((1S)-1-(3,5-dimethyl-1,2-oxazol-4-yl)propyl)-5-(6-methoxy-2-pyridinyl)-4H-1,2,4-triazol-3-yl)-2-butanesulfonamide or (2S,3R)-3-(5-chloro-2-pyrimidinyl)-N-(4-((1R)-1-(3,5-dimethyl-1,2-oxazol-4-yl)propyl)-5-(6-methoxy-2-pyridinyl)-4H-1,2,4-triazol-3-yl)-2-butanesulfonamide] was tested. Which EC50 did it give?
Answer: 13 nM

Question: For `COc1cccc(-c2nnc(NS(=O)(=O)[C@@H](C)[C@H](OC)c3ncc(Cl)cn3)n2[C@@H](C)c2ccno2)n1` (single isomer, unassigned) [Example 212.0, (1R,2S)-1-(5-chloro-2-pyrimidinyl)-1-methoxy-N-(5-(6-methoxy-2-pyridinyl)-4-((1S)-1-(1,2-oxazol-5-yl)ethyl)-4H-1,2,4-triazol-3-yl)-2-propanesulfonamide or (1R,2S)-1-(5-chloro-2-pyrimidinyl)-1-methoxy-N-(5-(6-methoxy-2-pyridinyl)-4-((1R)-1-(1,2-oxazol-5-yl)ethyl)-4H-1,2,4-triazol-3-yl)-2-propanesulfonamide], which EC50 is on record?
Answer: 0.85 nM

Question: For `COc1cccc(-c2nnc(NS(=O)(=O)[C@@H](C)[C@@H](OC(C)C)c3ncc(C)cn3)n2[C@H](c2conc2C)C2CC2)n1` (mixture of isomers) [Example 226.0, (1S,2S)-N-(4-((R)-cyclopropyl(3-methyl-1,2-oxazol-4-yl)methyl)-5-(6-methoxy-2-pyridinyl)-4H-1,2,4-triazol-3-yl)-1-(5-methyl-2-pyrimidinyl)-1-(2-propanyloxy)-2-propanesulfonamide and (1S,2S)-N-(4-((S)-cyclopropyl(3-methyl-1,2-oxazol-4-yl)methyl)-5-(6-methoxy-2-pyridinyl)-4H-1,2,4-triazol-3-yl)-1-(5-methyl-2-pyrimidinyl)-1-(2-propanyloxy)-2-propanesulfonamide], which EC50 is on record?
Answer: 0.88 nM

Question: With `COCC1(n2c(NS(=O)(=O)[C@@H](C)[C@H](OC)c3ncc(Cl)cn3)nnc2-c2ccccn2)CC1` [Example 61.0] as the compound, how does the EC50 read?
Answer: 0.89 nM

Question: `CC[C@@H](c1conc1C)n1c(NS(=O)(=O)[C@@H](C)[C@H](C)c2ncc(Cl)cn2)nnc1-c1cccc(OC)n1` (single isomer, unassigned) [Example 232.0, (2S,3R)-3-(5-chloro-2-pyrimidinyl)-N-(5-(6-methoxy-2-pyridinyl)-4-((1R)-1-(3-methyl-1,2-oxazol-4-yl)propyl)-4H-1,2,4-triazol-3-yl)-2-butanesulfonamide or (2S,3R)-3-(5-chloro-2-pyrimidinyl)-N-(5-(6-methoxy-2-pyridinyl)-4-((1S)-1-(3-methyl-1,2-oxazol-4-yl)propyl)-4H-1,2,4-triazol-3-yl)-2-butanesulfonamide] was tested. Which EC50 did it give?
Answer: 1.5 nM

Question: With `COc1cccc(-c2nnc(NS(=O)(=O)[C@@H](C)[C@H](OC)c3ncc(Cl)cn3)n2CC2CCO2)n1` (stereo partly drawn) [Example 137.0, (1R,2S)-1-(5-chloropyrimidin-2-yl)-1-methoxy-N-(5-(6-methoxypyridin-2-yl)-4-(oxetan-2-ylmethyl)-4H-1,2,4-triazol-3-yl)propane-2-sulfonamide] as the compound, how does the EC50 read?
Answer: 22 nM

Question: `COCCn1c(NS(=O)(=O)[C@@H](C)[C@H](OC)c2ncc(Cl)cn2)nnc1-c1cccc(OC)n1` [Example 3.0, (1R,2S)-1-(5-chloro-2-pyrimidinyl)-1-methoxy-N-(4-(2-methoxyethyl)-5-(6-methoxy-2-pyridinyl)-4H-1,2,4-triazol-3-yl)-2-propanesulfonamide] was tested. Which EC50 did it give?
Answer: 2.8 nM

Question: With `COC[C@@H](C)n1c(NS(=O)(=O)[C@@H](C)[C@H](OC)c2ncc(Cl)cn2)nnc1-c1cccnc1` [Example 125.0] as the compound, how does the EC50 read?
Answer: 90 nM

Question: For `CC[C@H]([C@@H]1CCCCO1)n1c(NS(=O)(=O)[C@@H](C)[C@H](OC)c2ncc(Cl)cn2)nnc1-c1cccc(OC)n1` (single isomer, unassigned) [Example 328.0], which EC50 is on record?
Answer: 0.064 nM

Question: How did the EC50 turn out when `COc1cccc(-c2nnc(NS(=O)(=O)[C@@H](C)[C@@H](OC(C)C)c3ncc(C)cn3)n2[C@@H](C)c2ccno2)n1` (single isomer, unassigned) [Example 217.0, (1S,2S)-N-(5-(6-methoxy-2-pyridinyl)-4-((1R)-1-(1,2-oxazol-5-yl)ethyl)-4H-1,2,4-triazol-3-yl)-1-(5-methyl-2-pyrimidinyl)-1-(2-propanyloxy)-2-propanesulfonamide or (1S,2S)-N-(5-(6-methoxy-2-pyridinyl)-4-((1S)-1-(1,2-oxazol-5-yl)ethyl)-4H-1,2,4-triazol-3-yl)-1-(5-methyl-2-pyrimidinyl)-1-(2-propanyloxy)-2-propanesulfonamide] was run?
Answer: 5.3 nM

Question: `COc1cccc(-c2nnc(NS(=O)(=O)[C@@H](C)[C@H](OC)c3ncc(Cl)cn3)n2CCc2cccnc2)n1` [Example 284.0, (1R,2S)-1-(5-chloropyrimidin-2-yl)-1-methoxy-N-(5-(6-methoxypyridin-2-yl)-4-(2-(pyridin-3-yl)ethyl)-4H-1,2,4-triazol-3-yl)propane-2-sulfonamide] was tested. Which EC50 did it give?
Answer: 120 nM

Question: How did the EC50 turn out when `COc1cccc(-c2nnc(NS(=O)(=O)[C@@H](C)[C@H](OC)c3ncc(Cl)cn3)n2[C@H](C)c2cncc(F)c2)n1` (single isomer, unassigned) [Example 349.0, (1R,2S)-1-(5-chloropyrimidin-2-yl)-N-(4-((R)-1-(5-fluoropyridin-3-yl)ethyl)-5-(6-methoxypyridin-2-yl)-4H-1,2,4-triazol-3-yl)-1-methoxypropane-2-sulfonamide or (1R,2S)-1-(5-chloropyrimidin-2-yl)-N-(4-((S)-1-(5-fluoropyridin-3-yl)ethyl)-5-(6-methoxypyridin-2-yl)-4H-1,2,4-triazol-3-yl)-1-methoxypropane-2-sulfonamide] was run?
Answer: 0.43 nM

Question: How did the EC50 turn out when `COC[C@H](C)n1c(NS(=O)(=O)[C@@H](C)[C@@H](OC(C)C)c2ncc(Cl)cn2)nnc1-c1cccc(OC)n1` [Example 179.0, (1S,2S)-1-(5-chloro-2-pyrimidinyl)-N-(4-((2S)-1-methoxy-2-propanyl)-5-(6-methoxy-2-pyridinyl)-4H-1,2,4-triazol-3-yl)-1-(2-propanyloxy)-2-propanesulfonamide] was run?
Answer: 0.64 nM

Question: How did the EC50 turn out when `COc1cccc(-c2nnc(NS(=O)(=O)[C@@H](C)[C@H](C)c3ncc(Cl)cn3)n2[C@@H](C)c2c(C)noc2C)n1` (racemic) [Example 314.0, (2S,3R)-3-(5-chloropyrimidin-2-yl)-N-(4-((R)-1-(3,5-dimethylisoxazol-4-yl)ethyl)-5-(6-methoxypyridin-2-yl)-4H-1,2,4-triazol-3-yl)butane-2-sulfonamide or (2S,3R)-3-(5-chloropyrimidin-2-yl)-N-(4-((S)-1-(3,5-dimethylisoxazol-4-yl)ethyl)-5-(6-methoxypyridin-2-yl)-4H-1,2,4-triazol-3-yl)butane-2-sulfonamide] was run?
Answer: 33 nM

Question: For `COc1cccc(-c2nnc(NS(=O)(=O)[C@@H](C)[C@@H](OC(C)C)c3ncc(C)cn3)n2[C@@H](C)c2ncn(C)n2)n1` (single isomer, unassigned) [Example 234.0, (1S,2S)-N-(5-(6-methoxy-2-pyridinyl)-4-((1R)-1-(1-methyl-1H-1,2,4-triazol-3-yl)ethyl)-4H-1,2,4-triazol-3-yl)-1-(5-methyl-2-pyrimidinyl)-1-(2-propanyloxy)-2-propanesulfonamide or (1S,2S)-N-(5-(6-methoxy-2-pyridinyl)-4-((1S)-1-(1-methyl-1H-1,2,4-triazol-3-yl)ethyl)-4H-1,2,4-triazol-3-yl)-1-(5-methyl-2-pyrimidinyl)-1-(2-propanyloxy)-2-propanesulfonamide], which EC50 is on record?
Answer: 84 nM

Question: How did the EC50 turn out when `COc1cccc(-c2nnc(NS(=O)(=O)[C@@H](C)[C@H](OC)c3ncc(Cl)cn3)n2[C@@H](C)c2noc(C)n2)n1` (single isomer, unassigned) [Example 243.0, (1R,2S)-1-(5-chloro-2-pyrimidinyl)-1-methoxy-N-(5-(6-methoxy-2-pyridinyl)-4-((1S)-1-(5-methyl-1,2,4-oxadiazol-3-yl)ethyl)-4H-1,2,4-triazol-3-yl)-2-propanesulfonamide or (1R,2S)-1-(5-chloro-2-pyrimidinyl)-1-methoxy-N-(5-(6-methoxy-2-pyridinyl)-4-((1R)-1-(5-methyl-1,2,4-oxadiazol-3-yl)ethyl)-4H-1,2,4-triazol-3-yl)-2-propanesulfonamide] was run?
Answer: 3.7 nM

Question: `COc1cccc(-c2nnc(NS(=O)(=O)[C@@H](C)[C@H](C)c3ncc(Cl)cn3)n2[C@H](C)c2cnn(C)c2)n1` (racemic) [Example 298.0, (2S,3R)-3-(5-chloropyrimidin-2-yl)-N-(5-(6-methoxypyridin-2-yl)-4-((R)-1-(1-methyl-1H-pyrazol-4-yl)ethyl)-4H-1,2,4-triazol-3-yl)butane-2-sulfonamide or (2S,3R)-3-(5-chloropyrimidin-2-yl)-N-(5-(6-methoxypyridin-2-yl)-4-((S)-1-(1-methyl-1H-pyrazol-4-yl)ethyl)-4H-1,2,4-triazol-3-yl)butane-2-sulfonamide] was tested. Which EC50 did it give?
Answer: 1.5 nM

Question: How did the EC50 turn out when `COc1cccc(-c2nnc(NS(=O)(=O)[C@@H](C)[C@@H](OC(C)C)c3ncc(C)cn3)n2[C@@H](C)c2ncn(C)n2)n1` (single isomer, unassigned) [Example 233.0, (1S,2S)-N-(5-(6-methoxy-2-pyridinyl)-4-((1S)-1-(1-methyl-1H-1,2,4-triazol-3-yl)ethyl)-4H-1,2,4-triazol-3-yl)-1-(5-methyl-2-pyrimidinyl)-1-(2-propanyloxy)-2-propanesulfonamide or (1S,2S)-N-(5-(6-methoxy-2-pyridinyl)-4-((1R)-1-(1-methyl-1H-1,2,4-triazol-3-yl)ethyl)-4H-1,2,4-triazol-3-yl)-1-(5-methyl-2-pyrimidinyl)-1-(2-propanyloxy)-2-propanesulfonamide] was run?
Answer: 10 nM
